As usually defined, the IC50 is the midpoint of a concentration-inhibition curve.

The structures appear in SMILES notation. Counter-ions that a name gives are not always drawn.

From patent US11535607B2, “Isoindolines as HDAC inhibitors” (Valo Health, Inc., priority 2018, dated 2022) come the findings set out here.

The target in this assay is full-length human HDAC11 (Homo sapiens (Human), UniProt Q96DB2). Put plainly: Probe binding HDAC11 time resolved fluorescence (TRF) assay. The note with it: Table 2, read-out: HDAC11 IC50 Range. On the procedure: The probe binding HDAC11 assay was performed using a time resolved fluorescence (TRF) assay format. Recombinant N-terminal GST tag full-length human HD AC 11 was expressed and purified from baculovirus in Sf9 insect cells (SignalChem, #H93-30G-1000). […] 4 μL of 2× probe and 2× anti-GST Terbium (Cisbio, #61GSTXLB) was added to assay plates followed by 4 μL of 2×HDAC11.
Chain of full-length human HDAC11 (Q96DB2 whole entry): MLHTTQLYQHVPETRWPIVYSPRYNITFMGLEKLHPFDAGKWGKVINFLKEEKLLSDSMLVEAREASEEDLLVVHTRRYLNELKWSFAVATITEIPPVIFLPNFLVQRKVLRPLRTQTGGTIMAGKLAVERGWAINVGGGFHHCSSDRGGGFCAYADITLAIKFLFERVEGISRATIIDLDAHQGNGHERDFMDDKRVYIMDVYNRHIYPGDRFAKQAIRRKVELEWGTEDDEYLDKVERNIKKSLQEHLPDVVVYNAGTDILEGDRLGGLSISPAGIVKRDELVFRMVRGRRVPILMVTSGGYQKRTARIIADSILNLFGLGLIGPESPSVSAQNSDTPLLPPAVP
Data from HD AC 11 Assays were reported as percent inhibition (inh) compared with control wells based on the following equation: % inh=1−((FLU−AveLow)/(AveHigh−AveLow)) where FLU=measured time resolved fluorescence. AveLow=average time resolved fluorescence of no enzyme control (n=32). AveHigh=average time resolved fluorescence of DMSO control (n=32). IC50 values were determined by curve fitting of the standard 4 parameter logistic fitting algorithm included in the Activity Base software package: IDBS XE Designer Model205. Data is fitted using the Levenburg Marquardt algorithm.
Regarding `O=C(NO)c1cccc2c1CN(c1nc3cc(C(F)(F)F)ccc3o1)C2=O` [Compound 36-2, N-hydroxy-1-oxo-2-(5-(trifluoromethyl)benzo[d]oxazol-2-yl)isoindoline-4-carboxamide], the half-maximal inhibitory concentration (IC50) is below 500 nM.
As for `O=C(NO)c1cccc2c1CN(c1cccc(C(F)(F)F)n1)C2` [Compound 45-2, N-hydroxy-2-(6-(trifluoromethyl)pyridin-2-yl)isoindoline-4-carboxamide], the IC50 was above 1000 nM.
With `O=C(NO)c1cccc2c1CN(c1nc3ccncc3[nH]1)C2` [Compound 3-1, N-hydroxy-2-(3H-imidazo[4,5-c]pyridin-2-yl)isoindoline-4-carboxamide] the figure was above 1000 nM; with `CC1(C)c2cccc(C(=O)NO)c2CN1C(=O)c1ccc(C(F)(F)F)cc1` [Compound 28-1, N-hydroxy-1,1-dimethyl-2-(4-(trifluoromethyl)benzoyl)isoindoline-4-carboxamide], above 1000 nM; with `CC1(C)c2cccc(C(=O)NO)c2CN1c1cc(C#N)c(C(F)(F)F)cn1` [Compound 27-2, 2-(4-cyano-5-(trifluoromethyl)pyridin-2-yl)-N-hydroxy-1,1-dimethylisoindoline-4-carboxamide], below 500 nM.
Take `CC1(C)c2cccc(C(=O)NO)c2CN1c1ccc2nc(C(F)(F)F)ccc2n1` [Compound 24-1, N-hydroxy-1,1-dimethyl-2-(6-(trifluoromethyl)-1,5-naphthyridin-2-yl)isoindoline-4-carboxamide]: the IC50 was below 500 nM.
For the compound `O=C(NO)c1cccc2c1CN(c1nc3cccc(-c4ccccc4)c3[nH]1)C2` [Compound 35-2, N-hydroxy-2-(7-phenyl-1H-benzo[d]imidazol-2-yl)isoindoline-4-carboxamide], the IC50 was above 1000 nM.
Consider `O=C(NO)c1cccc2c1CN(C1=NC(O)(C(F)(F)F)C(c3ccccc3)=N1)C2` (centres unmarked) [Compound 44-1, N-hydroxy-2-(4-hydroxy-5-phenyl-4-(trifluoromethyl)-4H-imidazol-2-yl)isoindoline-4-carboxamide], for which the IC50 was above 1000 nM.
Take `O=C(NO)c1cccc2c1CN(c1nc3ncccc3s1)C2` [Compound 10-1, N-hydroxy-2-(thiazolo[4,5-b]pyridin-2-yl)isoindoline-4-carboxamide]: the IC50 was above 1000 nM.
Take `O=C(NO)c1cccc2c1CN(c1nc3cnccc3o1)C2` [Compound 6-1, N-hydroxy-2-(oxazolo[4,5-c]pyridin-2-yl)isoindoline-4-carboxamide hydrochloride]: the IC50 fell in the range of 500 to 1000 nM.
With `Cc1cnc(N2Cc3cccc(C(=O)NO)c3C2)[nH]1` [Compound 7-5, N-hydroxy-2-(5-methyl-1H-imidazol-2-yl)isoindoline-4-carboxamide], the IC50 is above 1000 nM.
Regarding `CC1(C)c2cccc(C(=O)NO)c2CN1c1nc2cnccc2o1` [Compound 21-1, N-hydroxy-1,1-dimethyl-2-(oxazolo[4,5-c]pyridin-2-yl)isoindoline-4-carboxamide], the IC50 is below 500 nM.
In the case of `O=C(NO)c1cccc2cc(-c3cnc(C(F)(F)F)cn3)[nH]c12` [Compound 37-3, N-hydroxy-2-(5-(trifluoromethyl)pyrazin-2-yl)-1H-indole-7-carboxamide], the IC50 was below 500 nM.
The figure for `CC(=O)N1CCc2nc(N3Cc4cccc(C(=O)NO)c4C3)[nH]c2C1` [Compound 14-1, 2-(5-acetyl-4,5,6,7-tetrahydro-3H-imidazo[4,5-c]pyridin-2-yl)-N-hydroxyisoindoline-4-carboxamide hydrochloride] is above 1000 nM.
With `CC1(C)c2cccc(C(=O)NO)c2CN1c1nc2ncccc2s1` [Compound 20-1, N-hydroxy-1,1-dimethyl-2-(thiazolo[4,5-b]pyridin-2-yl)isoindoline-4-carboxamide] the figure was above 1000 nM; with `CC1(C)c2cccc(C(=O)NO)c2CN1C(=O)Nc1ccc(C(F)(F)F)cn1` [Compound 30-2, N4-hydroxy-1,1-dimethyl-N2-(5-(trifluoromethyl)pyridin-2-yl)isoindoline-2,4-dicarboxamide], above 1000 nM; with `O=C(NO)c1cccc2c1CN(c1nc3ccncc3o1)C2` [Compound 5-2, N-hydroxy-2-(oxazolo[5,4-c]pyridin-2-yl)isoindoline-4-carboxamide], above 1000 nM.
Take `CC1(C)c2cccc(C(=O)NO)c2CN1C(=O)Nc1ccnc(C(F)(F)F)c1` [Compound 30-3, N4-hydroxy-1,1-dimethyl-N2-(2-(trifluoromethyl)pyridin-4-yl)isoindoline-2,4-dicarboxamide]: the IC50 was below 500 nM.
The figure for `CC1(C)c2cccc(C(=O)NO)c2N[C@H]1c1ccc(C(F)(F)F)cn1` [Compound 40-1, (R)—N-hydroxy-3,3-dimethyl-2-(5-(trifluoromethyl)pyridin-2-yl)indoline-7-carboxamide] is above 1000 nM; for `O=C(NO)c1cccc2c1CC(c1ccc(C(F)(F)F)cc1)N2` (centres unmarked) [Compound 38-2, N-hydroxy-2-(4-(trifluoromethyl)phenyl)indoline-4-carboxamide] it is above 1000 nM.
`CC1(C)c2cccc(C(=O)NO)c2CN1c1nc(C(F)(F)F)cs1` [Compound 22-9, N-hydroxy-1,1-dimethyl-2-(4-(trifluoromethyl)thiazol-2-yl)isoindoline-4-carboxamide]: the IC50 is above 1000 nM.
Consider `O=C(NO)c1cccc2c1CN(c1nc3ccccc3o1)C2=O` [Compound 36-1, 2-(benzo[d]oxazol-2-yl)-N-hydroxy-1-oxoisoindoline-4-carboxamide], for which the half-inhibitory concentration (IC50) is above 1000 nM.
On to `CC1(C)c2cccc(C(=O)NO)c2CN1C(=O)Nc1nc2ccccc2o1` [Compound 30-7, N2-(benzo[d]oxazol-2-yl)-N4-hydroxy-1,1-dimethylisoindoline-2,4-dicarboxamide], for which the IC50 is above 1000 nM.
For the compound `CCCc1cnc(N2Cc3cccc(C(=O)NO)c3C2)[nH]1` [Compound 1-3, N-hydroxy-2-(5-propyl-1H-imidazol-2-yl)isoindoline-4-carboxamide], the IC50 was above 1000 nM.
The figure for `CC1(C)c2ccnc(C(=O)NO)c2CN1c1ccc(C(F)(F)F)cn1` [Compound 33-1, N-hydroxy-1,1-dimethyl-2-(5-(trifluoromethyl)pyridin-2-yl)-2,3-dihydro-1H-pyrrolo [3,4-c]pyridine-4-carboxamide] is 500 to 1000 nM; for `CC1(C)c2cccc(C(=O)NO)c2CN1c1nc2ccccc2s1` [Compound 22-1, 2-(benzo[d]thiazol-2-yl)-N-hydroxy-1,1-dimethylisoindoline-4-carboxamide] it is below 500 nM; for `O=C(NO)c1cccc2c1CN(c1nc3cccnc3[nH]1)C2` [Compound 4-1, N-hydroxy-2-(3H-imidazo[4,5-b]pyridin-2-yl)isoindoline-4-carboxamide] it is above 1000 nM.
The figure for `COc1ccc(CN2Cc3c(C(=O)NO)cccc3C2(C)C)cc1` [Compound 32-1, N-hydroxy-2-(4-methoxybenzyl)-1,1-dimethylisoindoline-4-carboxamide hydrochloride] is above 1000 nM; for `CC1(C)c2cccc(C(=O)NO)c2CN1C(=O)Nc1ccc(C(F)(F)F)cc1` [Compound 29-1, N4-hydroxy-1,1-dimethyl-N2-(4-(trifluoromethyl)phenyl)isoindoline-2,4-dicarboxamide] it is below 500 nM.
